Data as given in patent publication US11090273B2, “Tagged poly(ester amide urethane)s, nanoparticles formed from same, and uses thereof” (Cornell University, priority 2016, dated 2021).

What was measured:
HeLa cells = assay: Mitochondrial membrane potential (ΔΨm) change, JC-1 flow cytometry; assay type: cell-based; settings: 2 μg/mL GA equivalent (CCCP 50 μM), 24 h
A549 cells = assay: as above; assay type: cell-based, human; settings: 2 μg/mL GA equivalent (CCCP 50 μM), 24 h
HCT116 cells = assay: Cellular apoptosis by flow cytometry (Annexin V-FITC/PI); assay type: cell-based, human; settings: HCT 116; 2 μg/mL GA or equal amount loaded; 24 h
Method: Apoptosis was assessed using staining with Annexin V-FITC/PI apoptosis detection kit (Affymetrix, CA) according to the manufacturer's instruction followed by flow cytometry analysis.

[1] = system: MMP-2 and MMP-9 activity of A549 cells; assay: Gelatin zymography of MMP activity; assay type: cell-based, human; settings: 0.6 μg/mL GA equivalent, serum-free media, 16 h
[2] = system: MCF-7 human breast cancer xenograft tumor; settings: xenograft tumor at end of study
Method: In vivo xenograft Protocols Used. Female BALB/c nude mice, 8-weeks old, were obtained from the Laboratory Animal Services Centre, The Chinese University of Hong Kong. Mice were kept at room temperature 23±2° C. with an alternating 12-h light-dark cycle, and were allowed access to food and water ad libitum.
Before inoculation, 10 mg/kg Estradiol benzoate was given into mice through intraperitoneal (IP) injection with 2-day intervals. MCF-7 cells (4×10^6 cells per mouse) were suspended in PBS and inoculated subcutaneously into the left flank of each mouse, and tumor growth was monitored regularly. […] Equal volumes of saline were used as solvent for the free drug groups.
The therapy was continued six times at 2-day intervals through tail vein injection. Estradiol benzoate was also IP injected into mice at 2-day intervals during administration. The antitumor activity of the tested formulations was estimated by recording the changes in tumor mass. Tumor volumes were monitored by recording the tumor length and width with a caliper then calculated using the equation, V=0.5×a×b^2, where V is tumor volume (mm), a is tumor length (mm), and b is tumor width (mm). Mice were sacrificed on the 12th day after administration, and the tumors were weighed. […]

Compound	percentage of cell population with severe loss of ΔΨm (HeLa cells)	percentage of cell population with severe loss of ΔΨm (A549 cells)	percentage of dead cells (HCT116 cells)	percentage of healthy cells (HCT116 cells)	percentage of late apoptotic cells (HCT116 cells)	MMP band size and intensity / MMP activity (gelatin zymography) [1]	H&E staining: vacuoles in the tumor tissue [2]
N#CC(C#N)=NNc1cccc(Cl)c1 [CCCP, carbonyl cyanide 3-chlorophenylhydrazone]	60.0%	89.7%					
CC(C)=CCC[C@]1(C)C=Cc2c(O)c3c(c(CC=C(C)C)c2O1)O[C@]12C(=C[C@@H]4C[C@H]1C(C)(C)O[C@@]2(C/C=C(/C)C(=O)O)C4=O)C3=O [GA, Gambogic acid]	29.7%	60.1%	27.7%	68.1%	2.0%	reduced when comparing to the control sample	fewer vacuoles
